The results in this text go back to patent US11028085B2, “Substituted isoindolin-1-ones and 2,3-dihydro-1h-pyrrolo[3,4-c]pyridin-1-ones as hpk1 antagonists” (Nimbus Saturn, Inc., priority 2019, dated 2021).

Where a name gives a salt, the structure may show the parent alone.

Sequence of HPK1 (Q92918 whole entry): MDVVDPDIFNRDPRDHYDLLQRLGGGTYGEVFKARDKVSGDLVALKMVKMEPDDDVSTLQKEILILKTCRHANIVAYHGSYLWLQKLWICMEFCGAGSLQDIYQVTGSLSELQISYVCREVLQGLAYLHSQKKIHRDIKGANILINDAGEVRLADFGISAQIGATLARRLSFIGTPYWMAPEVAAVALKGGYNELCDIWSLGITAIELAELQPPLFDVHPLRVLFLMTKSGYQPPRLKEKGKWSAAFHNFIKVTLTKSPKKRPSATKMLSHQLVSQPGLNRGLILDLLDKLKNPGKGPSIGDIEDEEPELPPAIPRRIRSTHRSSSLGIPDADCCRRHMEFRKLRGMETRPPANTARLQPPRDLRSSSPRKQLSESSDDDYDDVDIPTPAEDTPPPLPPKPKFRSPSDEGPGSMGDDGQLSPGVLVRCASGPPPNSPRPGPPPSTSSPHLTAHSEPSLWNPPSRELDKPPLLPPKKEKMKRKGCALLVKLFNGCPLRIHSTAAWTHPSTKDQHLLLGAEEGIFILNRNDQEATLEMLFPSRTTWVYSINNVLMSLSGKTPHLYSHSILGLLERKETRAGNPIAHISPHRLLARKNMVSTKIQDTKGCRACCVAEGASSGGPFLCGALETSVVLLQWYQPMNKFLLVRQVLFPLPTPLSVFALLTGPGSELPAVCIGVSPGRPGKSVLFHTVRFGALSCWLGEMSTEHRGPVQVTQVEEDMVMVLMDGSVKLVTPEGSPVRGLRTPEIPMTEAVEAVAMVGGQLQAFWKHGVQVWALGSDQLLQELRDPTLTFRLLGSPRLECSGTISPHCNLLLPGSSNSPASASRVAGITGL

For this experiment, the target named is HPK1 (Homo sapiens (Human), UniProt Q92918). As to the kind of experiment: HPK1 biochemical enzyme assay (microfluidic mobility shift assay). The note with it: 1.5 nM HPK1, ATP 1 mM final, 60 min at RT, Caliper EZ Reader; read-out: HPK1 1000UMATP caliper IC50. As to the method:
HPK1 biochemical enzyme assay: HPK1 enzyme inhibition was measured using a microfluidic mobility shift assay. […] Test compounds were titrated in ten point curves (top final assay concentration […]), and preincubated with enzyme/substrate mix for 30 min prior to initiation of the reaction by addition of ATP (1 mM final concentration) and substrate (1 μM final concentration; Carna Biosciences) diluted in assay buffer supplemented by MgCl2 (final assay concentration of 5 mM). Following 60 min incubation at RT, the reaction was terminated by addition of 60 µl/well termination buffer (Carna Biosciences) and signal determination using a Caliper EZ Reader (Perkin Elmer, UK). […] The compound numbers correspond to the compound numbers in Table 1.
As usually defined, the IC50 is the concentration needed to halve the response being measured. As to `O=C1NCc2c(-c3cnc4cc(F)ccn34)ccc(Nc3ccc(N4CCO[C@H]5CNC[C@H]54)cn3)c21` [I-694, 4-(7-fluoroimidazo [1,2-a]pyridin-3-yl)-7-((5-((4aR,7aS)-hexahydro-pyrrolo[3,4-b][1.4]oxazin-4(4aH)-yl)pyridin-2-yl)amino)isoin-dolin-1-one], the half-inhibitory concentration (IC50) is less than 100 nM.
With `CC1NC(=O)c2c(Nc3ccc(N4CCC(O)CC4)cn3)ccc(-c3ccnc4c3ccn4C)c21` (stereo in doubt) [I-287, (R)-7-((5-(4-hydroxypiperidin-1-yl)pyridin-2-yl)amino)-3-methyl-4-(1-methyl-1H-pyrrolo[2,3-b]pyridin-4-yl)isoindolin-1-one] the figure was less than 100 nM; with `Cc1ccn2c(-c3ccc(Nc4ccc([C@H]5CCOC5)c(CN(C)C)n4)c4c3CNC4=O)cnc2n1` (stereo in doubt) [I-561, 7-[[6-[(dimethylamino)-methyl]-5-tetralndrofliran-3-yl-2-pyridyl]amino] 4-(7-methylimidazo [1,2-a]pyrimidin-3-yl)isoindolin-1-one], less than 100 nM.
With `CN1CCN(c2nc(Nc3ccc(-c4cnc5cc(F)ccn45)c4c3C(=O)NC4)ccc2[C@H]2CCOC2)CC1` [I-801, (R)-4-(7-fluoroimidazo [1,2-a]pyridin-3-yl)-7-((6-(4-methylpiperazin-1-yl)-5-(tetrahydrofuran-3-yl)pyridin-2-yl)amino)isoin-dolin-1-one] the figure was less than 100 nM.
With `CC1NC(=O)c2c(Nc3ccc(N4CCC(O)CC4)cn3)ccc(-c3ccnc4c3ccn4C)c21` (stereo in doubt) [I-286, (S)-7-((5-(4-hydroxypiperidin-1-yl)pyridin-2-yl)amino)-3-methyl-4-(1-methyl-1H-pyrrolo[2,3-b]pyridin-4-yl)isoindolin-1-one] the figure was more than 1000 nM; with `O=C1NCc2c(-c3cnc4ccccn34)ccc(Nc3ccc(N4CCC(O)CC4)cn3)c21` [I-125, 7-[[5-(4-hydroxy-1-piperidyl)-2-pyridyl]amino]-4-imidazo[1,2-a]pyridin-3-yl-isoindolin-1-one], less than 100 nM.
Turning to `Cc1cccn2c(-c3ccc(Nc4ccc(C5CCOC5)c(CN(C)C)n4)c4c3CNC4=O)cnc12` (stereo in doubt) [I-695, (S)-7-((6-((dimethylamino)-methyl)-5-(tetrahydrofuran-3-yl)pyridin-2-yl)amino)-4-(8-methylimidazo [1,2-a]pyridin-3-yl)isoindolin-1-one], the IC50 is less than 100 nM.
To `O=C1NCc2c(-c3cnc4cc(F)ccn34)ccc(Nc3ccc(N4CCC(N5CCOCC5)CC4)cn3)c21` [I-488, 4-(7-fluoroimidazo [1,2-a]pyridin-3-yl)-7-[[5-(4-morpholino-1-piperidyl)-2-pyridyl]amino] isoindolin-1-one] belongs less than 100 nM; to `O=C1NCc2c(-c3cnc4cc(CO)ccn34)ccc(Nc3ccc(N4CCC(O)CC4)cn3)c21` [I-177, 4-[7-(hydroxymeth-yl)imidazo[1,2-a]pyridin-3-yl]-7-[[5-(4-hydroxy-1-piperidyl)-2-pyripyl]amino] isoindolin-1-one], less than 100 nM; to “7-((5-((3R,4R)-4-fluoro-3-hydroxypiperidin-1-yl)pyridin-2-yl)amino)-4-(imidazo[1,2-a]pyrazin-3-yl)isoindolin-1-one [I-434]”, less than 100 nM.
To `O=C1NCc2c(-c3cnc4cc(F)ccn34)ccc(Nc3ccc(C4CCOCC4)cn3)c21` [I-341] belongs less than 100 nM.
To `O=C1NCc2c(-c3cnc4cc(F)ccn34)ccc(Nc3ccc(N4CCC(O)CC4)cn3)c21` [I-138] belongs less than 100 nM.
As to “7-((5-(4-hydroxypiperidin-1-yl)pyridin-2-yl)amino)-4-(imidazo[1,2-a]pyrazin-5-yl)-2,3-dihydro-1H-pyrrolo[3,4-c]pyridin-1-one [I-376]”, the IC50 fell in the range of 100 to 1000 nM.
With `CN(C)Cc1nc(Nc2cnc(-c3cccc4c3ccn4C)c3c2C(=O)NC3)ccc1[C@@H]1CCOC1` (single isomer, unassigned) [I-540] the figure was less than 100 nM; with `O=C1NCc2c(-c3cnc4cc(F)ccn34)ccc(Nc3ccn(C4CCOCC4)n3)c21` [I-382, 4-(7-fluoroimidazo [1,2-a]pyridin-3-yl)-7-((1-(tetrahydro-2H-pyran-4-yl)-1H-pyrazol-3-yl)amino)isoin-dolin-1-one], more than 1000 nM; with `O=C1NCc2c(-c3cnc4cc(F)ccn34)ccc(Nc3ccc(N4CCO[C@@H]5CNC[C@@H]54)cn3)c21` [I-690], less than 100 nM.
To “(S)-7-((6- ((dimethylamino)- methyl)-5-(3-(2- hydroxypropan- 2-yl)piperidin-1- yl)pyridin-2- yl)amino)-4-(7- fluoroimidazo [1,2-a]pyridin- 3-yl)isoindolin- 1-one [I-746]” belongs less than 100 nM; to `O=C1NCc2c(-c3ncc4cnccn34)ccc(Nc3ccc(N4CCC(O)CC4)cn3)c21` [I-398, 7-((5-(4-hydroxypipendin-1-yl)pyridin-2-yl)amino)-4-(imidazo[1,5-a]pyrazin-3-yl)isoindolin-1-one], 100 to 1000 nM.
With `O=C1NCc2c(-c3cnc4ccccn34)ncc(Nc3ccc(N4CCOCC4)cn3)c21` [I-198, 4-imidazo[1,2-a]pyridin-3-yl-7-[(5-morpholino-2-pyridyl)-amino]-2,3-dihydropyrrolo [3,4-c]pyridin-1-one] the figure was 100 to 1000 nM; with `Cc1ccn2c(-c3ncc(Nc4cccc(N5CC[C@@H]6CNC[C@@H]65)n4)c4c3CNC4=O)cnc2c1F` [I-480, 7-[[6-[(3aR,6aR)-3.3a,4,5,6.6a-hexahydro-2H-pyrrolo[2,3-c]pyrrol-1-yl]-2-pyridyl]amino]-4-(8-fluoro-7-methyl-imidazo[1,2-a]pyridin-3-yl)-2,3-dihydropyrrolo [3,4-c]pyridin-1-one], 100 to 1000 nM.
Take `Cc1cccn2c(-c3ccc(Nc4ccc(C5CCOC5)c(CN(C)C)n4)c4c3CNC4=O)cnc12` (stereo in doubt) [I-696, (R)-7-((6-((dimethylamino)-methyl)-5-(tetrahydrofuran-3-yl)pyridin-2-yl)amino)-4-(8-methylimidazo [1,2-a]pyridin-3-yl)isoindolin-1-one]: the IC50 was less than 100 nM.
With `Cc1cccn2c(-c3ncc(Nc4ccc(C5CCOC5)c(CN(C)C)n4)c4c3CNC4=O)cnc12` (centres unmarked) [I-539] the figure was less than 100 nM; with “(R)-7-((6- ((dimethylamino)- methyl)-5-(3-(2- hydroxypropan- 2-yl)piperidin-1- yl)pyridin-2- yl)amino)-4-(7- fluoroimidazo [1,2-a]pyridin- 3-yl)isoindolin- 1-one [I-745]”, less than 100 nM; with `CC(C)(O)[C@H]1CN(c2ccc(Nc3ccc(-c4cnc5cnccn45)c4c3C(=O)NC4)nc2)CCO1` [I-486, 7-[[5-[(2R)-2-(1-hydroxy-1-methylethyl)morpholin-4-yl]-2-pyridyl]amino]-4-imidazo[1,2-a]pyrazin-3-yl-isoindolin-1-one], less than 100 nM.
With `Cc1ccc2c(-c3ccc(Nc4ccc(CN5CCOCC5)cn4)c4c3CNC4=O)cnn2c1` [I-469, 4-(6-methylpyrazolo[1,5-a]pyridin-3-yl)-7-[[5-(morpholino-methyl)-2-pyridyl]amino] isoindolin-1-one] the figure was less than 100 nM; with `Cn1ccc2c(-c3ncc(Nc4ccc(C5CCOC5)c(CN5CCCC5)n4)c4c3CNC4=O)ccnc21` (centres unmarked) [I-552, 4-(1-methylpyrrolo [2,3-b]pyridin-4-yl)-7-[[6-(pyrrolidin-1-ylmethyl)-5-tetralndrofuran-3-yl-2-pyridyl]amino]-2,3-dihydropyrrolo [3,4-c]pyridin-1-one], less than 100 nM; with `COCC1(O)CCN(c2ccc(Nc3cnc(-c4ccnc5c4ccn5C)c4c3C(=O)NC4)nc2CN(C)C)CC1` [I-851, 7-1(6-[(dimethylamino)-methyl (-5-[4-hydroxy-4-(methoxymeth-yl)-1-piperidyl]-2-pyridyl]amino]-4-(1-methylpyrrolo [2,3-b]pyridin-4-yl)-2,3-dihydropyrrolo [3,4-c]pyridin-1-one Formate salt], less than 100 nM.
With `CN(C)Cc1nc(Nc2cnc(-c3ccnc4c3ccn4C)c3c2C(=O)NC3)ccc1O[C@@H]1CCOC1` [I-805, (R)-7-((6-((dimethylamino)-methyl)-5-((tetrahydrofur-an-3-yl)oxy)pyridin-2-yl)amino)-4-(1-methyl-1H-pyrrolo[2,3-b]pyridin-4-yl)-2,3-dihydro-1H-pyrrolo[3,4-c]pyridin-1-one] the figure was less than 100 nM; with `Cn1ccc2c(-c3ncc(Nc4ccc(N5CCNCC5)cn4)c4c3CNC4=O)cccc21` [I-266, 4-(1-methyl-1H-indol-4-yl)-7-((5-(piperazin-1-yl)pyridin-2-yl)amino)-2,3-dihydro-1H-pyrrolo[3,4-c]pyridin-1-one], less than 100 nM; with `CN1CC(Oc2nc(Nc3ccc(-c4cnc5cc(F)ccn45)c4c3C(=O)NC4)ccc2[C@@H]2CCOC2)C1` [I-816, (S)-4-(7-fluoroimidazo [1,2-a]pyridin-3-yl)-7-((6-((1-methylazetidin-3-yl]oxy)-5-(THF-3-yl)pyridin-2-yl)amino)isoin-dolin-1-one], less than 100 nM.
For `Cc1cnc2c(-c3ccc(Nc4ccc(N5CCC(O)CC5)cn4)c4c3CNC4=O)cnn2c1` [I-186, 7-[[5-(4-hydroxy-1-piperidyl)-2-pyridyl)amino]-4-(6-methylpyra-zolo[1,5-a]pyrimidin-3-yl)isoindolin-1-one], the IC50 is less than 100 nM.
With `CN1CCN(c2nc(Nc3ccc(-c4cnc5cc(F)ccn45)c4c3C(=O)NC4)ccc2[C@@H]2CCOC2)CC1` [I-802, (S)-4-(7-fluoroimidazo [1,2-a]pyridin-3-yl)-7-((6-(4-methylpiperazin-1-yl)-5-(tetrahydrofuran-3-yl)pyridin-2-yl)amino)isoin-dolin-1-one] the figure was less than 100 nM.
